≈ marks a conversion by molar mass, not a printed value. Calls of active or inactive are those of the source. The rule behind the calls is not given here. A value given as a limit tells only on which side of the number the result lay.

For data set [1], the system named is Escherichia coli. Description: Antibacterial activity against Escherichia coli ATCC 25922 after 16 hrs by broth microdilution method. In kind it is functional. As to conditions: ATCC 25922, 16 h. Background: Dilution methods test growth across graded concentrations, often in twofold steps.
Data set [2] has as its system Bacillus spizizenii. Description: Antibacterial activity against Bacillus subtilis ATCC 6633 after 16 hrs by broth microdilution method. It counts as functional. The following applies: ATCC 6633, 16 h.
Data set [3] can be described thus: Therapeutic index, ratio of HC50 for human erythrocytes to MIC for Bacillus subtilis ATCC 6633. As to conditions: read-out: TI.
A short description of data set [4]: Solubility of the compound in water at 40 mg sonicated for 15 mins at 25 degC measured after 5 hrs. In kind it is physicochemical.
The test system of data set [5] is Staphylococcus aureus. Kind of data set: Antibacterial activity against Staphylococcus aureus ATCC 25923 after 16 hrs by broth microdilution method. It counts as functional. As to conditions: ATCC 25923, 16 h.
Data set [6] can be described thus: Toxicity against human erythrocytes assessed as hemolysis after 1 hr by spectrophotometric analysis. In kind it is cell-based, Erythrocyte.
Data set [7] in a line: Therapeutic index, ratio of HC50 for human erythrocytes to MIC for Staphylococcus aureus ATCC 25923. As to conditions: read-out: TI.
The nature of data set [8]: Selectivity index, ratio of cytotoxicity for human MCF7 cells to MIC for Bacillus subtilis ATCC 6633. It counts as toxicity, cell-based. The following applies: read-out: Selectivity Index.
Data set [9] has as its system MCF7. Kind of data set: Cytotoxicity against human MCF7 cells assessed as cell viability at 62.5 ug/ml after 6 hrs by spectroscopic analysis. In kind it is cell-based. As to conditions: mcf7, 6 h.
Data set [10] concerns Staphylococcus aureus. Kind of data set: Antibacterial activity against Staphylococcus aureus ATCC 25923 at 1 mg/ml after 3 hrs by broth microdilution method in presence of human plasma. In kind it is functional. As to conditions: ATCC 25923, Plasma.
The subject of data set [11] is Staphylococcus aureus. Description: Antibacterial activity against Staphylococcus aureus ATCC 25923 assessed as cell lysis at 4 times MIC after 2 hrs by transmission electron microscopic analysis. In kind it is functional, organism-based.
Data set [12] concerns Staphylococcus aureus. Kind of data set: Antibacterial activity against Staphylococcus aureus ATCC 25923 at 1 mg/ml up to 18 hrs by broth microdilution method in presence of human plasma. In kind it is functional. As to conditions: ATCC 25923, Plasma.
Data set [13] deals with Staphylococcus aureus. Kind of data set: Antibacterial activity against Staphylococcus aureus ATCC 25923 assessed as disruption of cell membrane at 4 times MIC after 2 hrs by DAPI/propidium iodide dye staining based confocal laser scanning microscopic analysis. It counts as functional, organism-based.
Data set [14] is described as follows: Metabolic stability in human plasma assessed as compound remaining after 18 hrs by HPLC analysis. It counts as ADME, cell-free. As to conditions: read-out: Stability.
Data set [15] relates to Staphylococcus aureus. Kind of data set: Ratio of MIC for antibacterial activity against Staphylococcus aureus ATCC 25923 in absence of human plasma to MIC for antibacterial activity against Staphylococcus aureus ATCC 25923 in presence of human plasma. In kind it is functional.
Data set [16] is described as follows: Metabolic stability in human plasma assessed as compound remaining after 6 hrs by HPLC analysis. In kind it is ADME, cell-free. As to conditions: read-out: Stability.
The test system of data set [17] is Escherichia coli. Kind of data set: Antibacterial activity against Escherichia coli ATCC 25922 after 16 hrs by broth microdilution method in presence of peptide-R3. It counts as functional. The following applies: ATCC 25922, 16 h.
Data set [18] concerns Staphylococcus aureus. Description: Antibacterial activity against Staphylococcus aureus ATCC 25923 after 16 hrs by broth microdilution method in presence of peptide-R3. As to conditions: ATCC 25923, 16 h. It counts as functional.
Data set [19] concerns Bacillus spizizenii. Description: Antibacterial activity against Bacillus subtilis ATCC 6633 after 16 hrs by broth microdilution method in presence of peptide-R3. In kind it is functional. The following applies: ATCC 6633, 16 h.

The term MIC denotes the least concentration at which growth counts as inhibited. As a reminder, the solubility is the concentration that dissolves in the medium under given conditions. By HC50 is commonly meant the concentration giving 50% haemolysis. For `C=C(C)[C@@H]1CC[C@]2(C(=O)OCc3cn(CC(=O)N[C@@H](CCCNC(=N)N)C(=O)O)nn3)CC[C@]3(C)[C@H](CC[C@@H]4[C@@]5(C)CC[C@H](O)C(C)(C)[C@@H]5CC[C@]43C)[C@@H]12`, the MIC is above 166 µM in data set [1], 83 µM (≈ 62.4 µg/mL) in data set [2] and above 166 µM in data set [5]. Besides, the selectivity ratio in data set [3] is 5. Moreover, the solubility at 5 h in data set [4] stood at 1.3 mg/mL (≈ 1.73 mM). Besides, the HC50 at 1 h in data set [6] came to 397 µM.

Take `C=C(C)[C@@H]1CC[C@]2(C(=O)O)CC[C@]3(C)[C@H](CC[C@@H]4[C@@]5(C)CC[C@H](OC(=O)CCc6cn(CC(=O)N[C@@H](CCCNC(=N)N)C(=O)N[C@@H](CCCNC(=N)N)C(=O)N[C@@H](CCCNC(=N)N)C(=O)O)nn6)C(C)(C)[C@@H]5CC[C@]43C)[C@@H]12`: the values for the selectivity ratio in [7], in data set [8] and in [3] were 62, 20 and 125, respectively. In data set [9], the Activity entry is on record as “Non-toxic”. Besides, the MIC in [1] is above 113 µM; in data set [10], 3.5 µM; in data set [12], 3.5 µM; in [2], 1.8 µM (≈ 1.99 µg/mL); in [5] it was 3.5 µM (≈ 3.87 µg/mL). The result in [11] and in data set [13] was Active. In addition, in data set [14], the remaining at 18 h is 87%. Besides, the Ratio in data set [15] is listed as 2. Further, the HC50 at 1 h in [6] stood at 215 µM.

On to H-GIGKFLKKAKKFGKAFVKILKK-OH, for which the selectivity ratio in [7] and in data set [3] was 100 each time. The MIC turned out to be 3.1 µM in [1], 1.5 µM in data set [2] and 1.5 µM in data set [5]. Besides, the remaining at 18 h in [14] worked out at 1%. Moreover, the remaining at 6 h in data set [16] was 54%. Moreover, in [6], the HC50 at 1 h stood at 153 µM.

Take `C[C@H]1[C@H](C)CC[C@]2(C(=O)OCc3cn(CC(=O)N[C@@H](CCCNC(=N)N)C(=O)N[C@@H](CCCNC(=N)N)C(=O)N[C@@H](CCCNC(=N)N)C(=O)O)nn3)CC[C@]3(C)C(=CC[C@@H]4[C@@]5(C)CC[C@H](O)C(C)(C)[C@@H]5CC[C@]43C)[C@H]12`: the selectivity ratio in data set [7] and in data set [3] was 8 each time. In addition, the MIC in data set [1] stood at 14.7 µM (≈ 15.6 µg/mL); in data set [2], 3.7 µM (≈ 3.94 µg/mL); in [5], 3.7 µM (≈ 3.94 µg/mL). Further, the HC50 at 1 h in data set [6] came to 29 µM.

For the molecule `C=C(C)[C@@H]1CC[C@]2(C(=O)OCc3cn(CC(=O)N[C@@H](CCCNC(=N)N)C(=O)N[C@@H](CCCNC(=N)N)C(=O)N[C@@H](CCCNC(=N)N)C(=O)N[C@@H](CCCNC(=N)N)C(=O)N[C@@H](CCCNC(=N)N)C(=O)O)nn3)CC[C@]3(C)[C@H](CC[C@@H]4[C@@]5(C)CC[C@H](O)C(C)(C)[C@@H]5CC[C@]43C)[C@@H]12`, the selectivity ratio came to 6 in data set [7] and 12 in data set [3]. Further, the minimum inhibitory concentration (MIC) was above 91 µM in data set [1], 2.8 µM (≈ 3.85 µg/mL) in data set [2] and 5.7 µM (≈ 7.85 µg/mL) in [5]. For the same molecule, in data set [4], the solubility at 5 h was 220 mg/mL (≈ 160 mM). The HC50 at 1 h in data set [6] turned out to be 35 µM.

`C=C(C)[C@@H]1CC[C@]2(C(=O)OCc3cn(CC(=O)N[C@@H](CCCNC(=N)N)C(=O)N[C@@H](CCCNC(=N)N)C(=O)O)nn3)CC[C@]3(C)[C@H](CC[C@@H]4[C@@]5(C)CC[C@H](O)C(C)(C)[C@@H]5CC[C@]43C)[C@@H]12`: the MIC in data set [1] was above 138 µM; in data set [2], 4.3 µM (≈ 3.91 µg/mL); in data set [5], 8.6 µM (≈ 7.81 µg/mL). The same molecule had a solubility at 5 h in [4] of 48 mg/mL (≈ 52.9 mM).

`C=C(C)[C@@H]1CC[C@]2(C(=O)O)CC[C@]3(C)[C@H](CC[C@@H]4[C@@]5(C)CC[C@H](OC(=O)CCc6cn(CC(=O)N[C@@H](CCCNC(=N)N)C(=O)N[C@@H](CCCNC(=N)N)C(=O)N[C@@H](CCCNC(=N)N)C(=O)N[C@@H](CCCNC(=N)N)C(=O)N[C@@H](CCCNC(=N)N)C(=O)N[C@@H](CCCNC(=N)N)C(=O)N[C@@H](CCCNC(=N)N)C(=O)N[C@@H](CCCNC(=N)N)C(=O)O)nn6)C(C)(C)[C@@H]5CC[C@]43C)[C@@H]12`: the selectivity ratio in data set [7] and in data set [3] was above 103 each time. For the same molecule, the MIC was above 66 µM in data set [1], 4.1 µM (≈ 7.74 µg/mL) in data set [2] and 4.1 µM (≈ 7.74 µg/mL) in data set [5]. Further, in data set [6], the HC50 at 1 h is above 424 µM.

For `C[C@H]1[C@H](C)CCC2(C(=O)O)CC[C@]3(C)C(=CC[C@@H]4[C@@]5(C)CC[C@H](OC(=O)CCc6cn(CC(=O)N[C@@H](CCCNC(=N)N)C(=O)N[C@@H](CCCNC(=N)N)C(=O)N[C@@H](CCCNC(=N)N)C(=O)N[C@@H](CCCNC(=N)N)C(=O)N[C@@H](CCCNC(=N)N)C(=O)N[C@@H](CCCNC(=N)N)C(=O)N[C@@H](CCCNC(=N)N)C(=O)N[C@@H](CCCNC(=N)N)C(=O)O)nn6)C(C)(C)[C@@H]5CC[C@]43C)[C@H]12` (single isomer, unassigned), the selectivity ratio in [7] and in data set [3] was above 103 in each case. In addition, the MIC in data set [1] is above 66 µM; in data set [2] it was 4.1 µM (≈ 7.74 µg/mL); in data set [5], 4.1 µM (≈ 7.74 µg/mL). Besides, in [6], the HC50 at 1 h was above 424 µM.

As to `C=C(C)[C@@H]1CC[C@]2(C(=O)OCc3cn(CC(=O)N[C@@H](CCCNC(=N)N)C(=O)N[C@@H](CCCNC(=N)N)C(=O)N[C@@H](CCCNC(=N)N)C(=O)N[C@@H](CCCNC(=N)N)C(=O)N[C@@H](CCCNC(=N)N)C(=O)N[C@@H](CCCNC(=N)N)C(=O)N[C@@H](CCCNC(=N)N)C(=O)N[C@@H](CCCNC(=N)N)C(=O)O)nn3)CC[C@]3(C)[C@H](CC[C@@H]4[C@@]5(C)CC[C@H](O)C(C)(C)[C@@H]5CC[C@]43C)[C@@H]12`, the selectivity ratio in data set [7] and in [3] was 13 throughout. Further, the concentration in solution in data set [4] (solubility at 5 h) was 636 mg/mL (≈ 345 mM). For the same molecule, the HC50 at 1 h in data set [6] turned out to be 55 µM.

Regarding `C=C(C)[C@@H]1CC[C@]2(C(=O)O)CC[C@]3(C)[C@H](CC[C@@H]4[C@@]5(C)CC[C@H](OC(=O)CCc6cn(CC(=O)N[C@@H](CCCNC(=N)N)C(=O)N[C@@H](CCCNC(=N)N)C(=O)O)nn6)C(C)(C)[C@@H]5CC[C@]43C)[C@@H]12`, the selectivity ratio in [7] was above 103; in [3], above 205. Also, the MIC in [1] is above 131 µM; in [2], 4.1 µM (≈ 3.9 µg/mL); in data set [5], 8.2 µM (≈ 7.79 µg/mL). The HC50 at 1 h in data set [6] was above 841 µM.

For the molecule `C=C(C)[C@@H]1CC[C@]2(C(=O)O)CC[C@]3(C)[C@H](CC[C@@H]4[C@@]5(C)CC[C@H](O)C(C)(C)[C@@H]5CC[C@]43C)[C@@H]12` [BETULINIC ACID], the MIC in data set [17] is above 531 µM; in [1], above 1100 µM; in data set [18], above 531 µM; in data set [2] it was 547 µM (≈ 250 µg/mL); in data set [5], 547 µM (≈ 250 µg/mL); in [19], above 531 µM.

As to `C=C(C)[C@@H]1CC[C@]2(C(=O)OCc3cn(CC(=O)N[C@@H](CCCNC(=N)N)C(=O)N[C@@H](CCCNC(=N)N)C(=O)N[C@@H](CCCNC(=N)N)C(=O)O)nn3)CC[C@]3(C)[C@H](CC[C@@H]4[C@@]5(C)CC[C@H](O)C(C)(C)[C@@H]5CC[C@]43C)[C@@H]12`, the selectivity ratio in [7] and in [3] was 22 in each case. For the same molecule, the MIC was 14.7 µM (≈ 15.6 µg/mL) in data set [1], 3.7 µM (≈ 3.94 µg/mL) in [2] and 3.7 µM (≈ 3.94 µg/mL) in data set [5]. The molecule also yielded a solubility at 5 h in data set [4] of 98 mg/mL (≈ 92.1 mM). Moreover, the HC50 at 1 h in data set [6] was determined as 80 µM.

The values are drawn from ChEMBL document CHEMBL3813667, “Triterpene sapogenin-polyarginine conjugates exhibit promising antibacterial activity against Gram-positive strains” (Bioorg Med Chem, 2016).
